Reference: the RepoRT retention time repository (doi:10.1016/j.jhazmat.2019.121712)

Assay: Thermo Scientific Acclaim RSLC 120 C18, 100 × 2.1 mm, 2.2 µm, 30 °C; A: 90% water + 10% methanol + 0.01% formic acid + 5 mM ammonium formate; B: methanol + 0.01% formic acid + 5 mM ammonium formate; gradient (min/%B) 0.1/1 3/39 14/99.9 16/99.9
Details: stereoisomer not certain

LC retention time	SMILES
10.1 min	CCOc1ccc2c(c1)C(C)=CC(C)(C)N2
5.54 min	CN1CCC(=C2c3ccccc3CC(=O)c3sccc32)CC1
6.96 min	COc1ccc2c(c1OC)C(=O)OC2C1c2c(cc3c(c2OC)OCO3)CCN1C (centres undefined)
7.99 min	CNCCCC1c2ccccc2C=Cc2ccccc21
3.89 min	CC(C)NCC(O)COc1cccc2[nH]ccc12 (centres undefined)
3.56 min	Cn1c(=O)c2c(ncn2CCCNCC(O)c2cc(O)cc(O)c2)n(C)c1=O (centres undefined)
6.33 min	N#Cc1ccc(C(c2ccc(C#N)cc2)n2cncn2)cc1
5.67 min	CC(=O)Nc1ccc(-c2ccc(C=NN3CC(=O)NC3=O)o2)cc1
7.89 min	CN1CCC(=C2c3ccccc3C=Cc3ccccc32)CC1
5.96 min	CC(CC(C#N)(c1ccccc1)C(C)C)N(C)C (centres undefined)
5.96 min	CC(C)Nc1nc(NC(C)C)[nH]c(=O)n1
2.63 min	N=C(N)c1ccccc1
10.7 min	CCC1=C(C)CN(C(=O)NCCc2ccc(S(=O)(=O)NC(=O)NC3CCC(C)CC3)cc2)C1=O (centres undefined)
6.83 min	CC12CCC3c4ccc(O)cc4CCC3C1CC(O)C2O (centres undefined)
8.43 min	CSc1nc(N)nc(NC(C)(C)C)n1
2.83 min	CCN(CC)CCNC(=O)c1ccc(N)cc1
6.89 min	S=c1[nH]c2ccccc2s1
5.68 min	CCOc1ccccc1C(N)=O
9.16 min	CCNc1nc(NC(C)(C)C)nc(OC)n1
9.61 min	COC(=O)C1=C(C)NC(C)=C(C(=O)OC(C)C)C1c1cccc2nonc12 (centres undefined)
5.34 min	CC[N+]([O-])(CC)CC(=O)Nc1c(C)cccc1C
12 min	CC1COC(=O)c2cc3c(cc21)C(C)(C)C(C)C3(C)C (centres undefined)
9.14 min	COCCCNc1nc(NC(C)C)nc(SC)n1
4.6 min	Cc1cc(NS(=O)(=O)c2ccc(N)cc2)no1

LC retention time	SMILES
1.39 min	Nc1ccn(C2OC(CO)C(O)C2O)c(=O)n1 (centres undefined)
5.34 min	COc1cc2nc(N3CCN(C(=O)c4ccco4)CC3)nc(N)c2cc1OC
2.74 min	CCC1C(=O)OCC1Cc1cncn1C (centres undefined)
7.26 min	OCCOCCN1CCN(C2=Nc3ccccc3Sc3ccccc32)CC1
7.09 min	Cc1cnc(NC(=O)C2=C(O)c3ccccc3S(=O)(=O)N2C)s1
7.71 min	C=CC1(C)CC(OC(=O)CSCCN(CC)CC)C2(C)C(C)CCC3(CCC(=O)C32)C(C)C1O (centres undefined)
8.21 min	CC(C)CN(CC(O)C(Cc1ccccc1)NC(=O)OC1COC2OCCC12)S(=O)(=O)c1ccc(N)cc1 (centres undefined)
5.24 min	CCCN1CC(NS(=O)(=O)N(CC)CC)CC2Cc3c(O)cccc3CC21 (centres undefined)
9.09 min	CCCc1nn(C)c2c(=O)[nH]c(-c3cc(C(=O)CN4CCN(CC)C(=O)C4)ccc3OCC)nc12
8.18 min	CCCc1nn(C)c2c(=O)[nH]c(-c3cc(C(=O)CN4CCN(CC)C(=O)C4=O)ccc3OCC)nc12
12 min	CCSC(=O)N(CC(C)C)CC(C)C
8.32 min	CC(COc1ccccc1Cc1ccccc1)N1CCCCC1 (centres undefined)
4.76 min	NC(=O)c1ccccc1O
8.09 min	CC12CCC3=C4CCC(=O)C=C4CCC3C1CCC2(O)CC#N (centres undefined)
3.76 min	Cn1c(=O)c2c(ncn2CC(O)CO)n(C)c1=O (centres undefined)
7.09 min	NCC(O)COc1ccccc1C(=O)CCc1ccccc1.O=C(O)C(=O)O (centres undefined)
6.82 min	c1ccc(C(CCN2CCCCC2)c2ccccc2)cc1
3.13 min	CN1C(=O)C(O)CC1c1cccnc1 (centres undefined)
3.93 min	Cn1c(=O)c2[nH]cnc2n(C)c1=O
6.94 min	O=C(c1ccccc1)c1ccc2n1CCC2C(=O)O (centres undefined)
5.94 min	CCCCOc1cc(C(=O)OCCN(CC)CC)ccc1N
5.86 min	CCCS(=O)(=O)c1ccc2nc(NC(=O)OC)[nH]c2c1
7.17 min	NS(=O)(=O)c1cc(C(=O)O)cc(N2CCCC2)c1Oc1ccccc1

SMILES	LC retention time
CCCCCn1nc(C(=O)NC23CC4CC(CC(C4)C2)C3)c2ccccc21	14 min
NNC(N)=O	1.33 min
CCOP(=O)(SC(C)CC)N1CCSC1=O (centres undefined)	7.73 min
CCNC(C)C(=O)c1ccc2c(c1)OCO2 (centres undefined)	4.04 min
CC(C(=O)c1ccccc1)N(C)C (centres undefined)	3.64 min
CC=C(C)C(=O)OC1CC(OC(C)=O)C2(C(=O)OC)COC3C2C12COC(O)(C(=O)OC)C2C(C)(C12OC1(C)C1CC2OC2OC=CC21O)C3O (centres undefined)	7.56 min
CC(C)=CC1C(C(=O)OCc2coc(Cc3ccccc3)c2)C1(C)C (centres undefined)	13.6 min
Cc1occc1C(=O)Nc1ccccc1	7.59 min
CNC(=O)CSP(=S)(OC)OC	5.23 min
CC(Cc1ccc2c(c1)OCO2)N(C)C (centres undefined)	4.08 min
CNC(=O)ON=C(C)C(C)S(C)(=O)=O (centres undefined)	3.66 min
CCOP(=S)(NC(C)C)Oc1ccccc1C(=O)OC(C)C (centres undefined)	11.2 min
COc1cccc2c(C(=O)NC3C4(C)CCC(C4)C3(C)C)cn(CCN3CCOCC3)c12 (centres undefined)	11.7 min
CN1CCC23c4c5ccc(OC6OC(C(=O)O)C(O)C(O)C6O)c4OC2C(O)C=CC3C1C5 (centres undefined)	1.63 min
C=C1CC2C(CCC3(C)C(=O)CCC23)C2(C)C=CC(=O)C=C12 (centres undefined)	9.03 min
CN(C)CCc1ccc(O)cc1	2.28 min
CNC(C)C(O)c1ccccc1 (centres undefined)	3.76 min
Cc1cc(C2CC2)nc(Nc2ccccc2)n1	11 min
CCOP(=S)(OCC)N1C(=O)c2ccccc2C1=O	10.2 min
COP(N)(=O)SC (centres undefined)	2.76 min
CN1CCCCC1Cn1cc(C(=O)C23CC4CC(CC(C4)C2)C3)c2ccccc21 (centres undefined)	9.94 min
CCCCCn1cc(C(=O)c2cccc3ccccc23)c2ccc(O)cc21	11.2 min
CCS(=O)CCSP(=O)(OC)OC (centres undefined)	3.98 min
CCOP(=O)(Sc1ccccc1)Sc1ccccc1	10.8 min
CC1CCCCC1NC(=O)Nc1ccccc1 (centres undefined)	9.37 min
COC(=O)C1=CCCN(C)C1	1.74 min
CCCCCn1cc(C(=O)c2ccccc2OC)c2ccccc21	11.2 min
